How the values were obtained:
[1] = system: MCF-7 inducible ALT cells; test: Mouse xenograft model, MCF7-ALT tumors; assay type: in vivo, NOD/SCID mice; settings: day 17; start volume 200 mm3; Palbociclib 100 mg/kg daily gavage, doxycycline 0.1 mg/ml in drinking water
Method: FIG. 14: ALT slows tumor growth in animals, and ALT and PD dual treatment causes tumor regression. MCF-7 inducible ALT cells were injected into the 4th mammary gland of NOD/SCID mice. Tumors were allowed to develop to a volume of 200 mm3, before treatment. Vehicle: daily gavage with PBS. PD: Daily gavage of Palbociclib 100 mg/kg. Doxy: 0.1 mg/ml doxycycline added to the drinking water to allow continuous uptake and induction of ALT in the human cancer cells. Doxy+PD: Daily gavage of Palbociclib 100 mg/kg and 0.1 mg/ml doxycycline added to the drinking water. Vehicle treated animals rapidly progressed and by 17 days, tumor volumes were >3000 mm PD treatment slowed down tumor growth but by day 17, tumors were >2500. […] However, dual ALT and PD (doxy/PD) treatment, caused tumor regression by […] (e.g., from 200 mm3 down to 0-40 mm3), by day 5, which was durable up to day 19.
NP-ALT was added to cell media in the absence of fetal bovine serum for 6 hours. This media was removed and replaced with FBS+media, and cells were allowed to recover for 2 days, at which time, cell counts were determined. Counts were standardized to the proliferation seen in the NO FBS untreated control. • Expression in vivo. […] Tumor volume was monitored every other day using digital calipers. […] Doxy+PD: Daily gavage of Palbociclib 100 mg/kg and 0.1 mg/ml doxycycline added to the drinking water. • Quantitative RT-PCR. […]

Mock MCF7 cells = test: PD0332991 inhibitor treatment, proliferation by cell counting; assay type: cell-based; settings: Homo sapiens, 48 h post treatment, read-out: IC50 (concentration needed to inhibit proliferation by 50%)
Method: (§1) Immunoprecipitation with IgG served as a negative control (FIG. 6C). DNA with Hoechst stain is in blue and is merged with red and green staining (FIG. 6D). (FIG. 6E) Cdk4 was immunoprecipitated from the lysates and recombinant Rb was added to perform an in vitro kinase assay in the presence of ATP Immunoblot analysis was performed to probe for Rb, Ser780 pRb and cdk4 Immunoprecipitation with IgG served as a negative control. (FIG. 6F) Cells were treated with different concentrations of PD0332291 or DMSO as a control at Day 2. Total cell numbers were analyzed by counting 24 and 48 hours post treatment to determine IC50 values. (FIG. 6G) Cells were treated with different concentration of PD032291 or DMSO and analyzed by PI staining and FACS analysis. % G1 content is plotted.
(§2) The PCR fragments were ligated to the T7pGEMEX human His-p27 or T7pGEMEX human Flag-p27 plasmid for expression in E. coli. Mutants Y74F, Y88F, and Y88/89F were previously described (12). Flag-tagged p27 mutants were purified by Flag-immunoprecipitation with Flag antibody (M-2, Sigma F-18C9) and eluted with Flag peptide (Sigma F-4799) according to manufacturer's protocol. His-tagged p27 mutants were purified by FPLC via his-trap affinity chromatography (His-Trap HP, GE Healthcare 71-5247-01). The affinity column was stripped according to manufacturer's protocol, then washed with 5 column volumes of 100 mM CoCl2. The crude material was applied with a loading buffer consisting of 6 M urea, 500 mM NaCl, 50 mM Tris-HCl, pH 7.5 and 20% glycerol. The material was washed with 500 mM NaCl, 50 mM Tris-HCl, pH 7.5 and 10% glycerol. The purified material was eluted with 500 mM imidazole,20 mM Hepes pH 7.4 and 1 M KCl. The protein was then dialyzed overnight in a solution of 25 mM Hepes pH 7.7, 150 mM NaCl, 5 mM MgCl2 and 0.05% NP40.

[2] = system: MCF7 WT Brk expressing cells; test: as above; assay type: cell-based; settings: Homo sapiens, 48 h post treatment, read-out: IC50 (concentration needed to inhibit proliferation by 50%)
Method: as §1, §2

MCF10A = test: as above; assay type: cell-based; settings: Homo sapiens, MCF-10A, 48 h post treatment, read-out: IC50 (concentration needed to inhibit proliferation by 50%)
Method: as §1, §2

MDA MB-468 cells = test: as above; assay type: cell-based; settings: Homo sapiens, 48 h post treatment, read-out: IC50 (concentration needed to inhibit proliferation by 50%)
Method: as §1, §2

MB 231 (TNBC) = test: Palbociclib sensitivity of breast cancer line; assay type: cell-based; settings: Homo sapiens; MB 231, moderate-responder
[3] = system: MCF7 WT Brk expressing cells; test: PI staining and FACS analysis, % G1 content; assay type: cell-based, human; settings: PD0332991 up to 100 nM
Method: as §1
The PCR fragments were ligated to the T7pGEMEX human His-p27 or T7pGEMEX human Flag-p27 plasmid for expression in E. coli. Mutants Y74F, Y88F, and Y88/89F were previously described (12). Flag-tagged p27 mutants were purified by Flag-immunoprecipitation with Flag antibody (M-2, Sigma F-18C9) and eluted with Flag peptide (Sigma F-4799) according to manufacturer's protocol. His-tagged p27 mutants were purified by FPLC via his-trap affinity chromatography (His-Trap HP, GE Healthcare 71-5247-01). The affinity column was stripped according to manufacturer's protocol, then washed with 5 column volumes of 100 mM CoCl2. […]

IC50 [2]: > 0.6 µM
IC50 (MB 231 (TNBC)): 0.4 µM
SMILES: CC(=O)c1c(C)c2cnc(Nc3ccc(N4CCNCC4)cn3)nc2n(C2CCCC2)c1=O [PD0332991]
tumor volume [1]: > 2500 mm3
IC50 (Mock MCF7 cells): 0.15 µM
IC50 (MCF10A): 0.11 µM
IC50 (MDA MB-468 cells): 0.35 µM
G1 content [3]: approximately 55%

From patent US11260100B2, “Compositions targeting the interaction domain between p27Kip1 and Brk and methods of use thereof to inhibit p27 Y phosphorylation and cdk4 activity” (The Research Foundation for the State University of New York, priority 2014, dated 2022)
